Data: patent US10093678B2, “Azaspiro derivatives as TRPM8 antagonists” (RaQualia Pharma Inc., priority 2014, dated 2018)

Target: T1, human TRPM8 (Homo sapiens, UniProt Q7Z2W7)
T1 construct: expressed in transfected cells; host or cells: HEK293
Test: Menthol-induced Ca2+ influx in HEK293 cells stably expressing human TRPM8
Format: cell-based
Conditions: 30 microM menthol-induced Ca2+ influx, read-out: IC50 against TRPM8
In short: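 HEK293 cells stably expressing human TRPM8 were loaded with Fluo4-AM for 1 h at room temperature, preincubated 5 min with compound, then challenged with 30 microM menthol. Calcium rise was read by FDSS imaging. IC50 came from 11-point curves using duplicate-well means.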

T1 sequence (Q7Z2W7 whole entry): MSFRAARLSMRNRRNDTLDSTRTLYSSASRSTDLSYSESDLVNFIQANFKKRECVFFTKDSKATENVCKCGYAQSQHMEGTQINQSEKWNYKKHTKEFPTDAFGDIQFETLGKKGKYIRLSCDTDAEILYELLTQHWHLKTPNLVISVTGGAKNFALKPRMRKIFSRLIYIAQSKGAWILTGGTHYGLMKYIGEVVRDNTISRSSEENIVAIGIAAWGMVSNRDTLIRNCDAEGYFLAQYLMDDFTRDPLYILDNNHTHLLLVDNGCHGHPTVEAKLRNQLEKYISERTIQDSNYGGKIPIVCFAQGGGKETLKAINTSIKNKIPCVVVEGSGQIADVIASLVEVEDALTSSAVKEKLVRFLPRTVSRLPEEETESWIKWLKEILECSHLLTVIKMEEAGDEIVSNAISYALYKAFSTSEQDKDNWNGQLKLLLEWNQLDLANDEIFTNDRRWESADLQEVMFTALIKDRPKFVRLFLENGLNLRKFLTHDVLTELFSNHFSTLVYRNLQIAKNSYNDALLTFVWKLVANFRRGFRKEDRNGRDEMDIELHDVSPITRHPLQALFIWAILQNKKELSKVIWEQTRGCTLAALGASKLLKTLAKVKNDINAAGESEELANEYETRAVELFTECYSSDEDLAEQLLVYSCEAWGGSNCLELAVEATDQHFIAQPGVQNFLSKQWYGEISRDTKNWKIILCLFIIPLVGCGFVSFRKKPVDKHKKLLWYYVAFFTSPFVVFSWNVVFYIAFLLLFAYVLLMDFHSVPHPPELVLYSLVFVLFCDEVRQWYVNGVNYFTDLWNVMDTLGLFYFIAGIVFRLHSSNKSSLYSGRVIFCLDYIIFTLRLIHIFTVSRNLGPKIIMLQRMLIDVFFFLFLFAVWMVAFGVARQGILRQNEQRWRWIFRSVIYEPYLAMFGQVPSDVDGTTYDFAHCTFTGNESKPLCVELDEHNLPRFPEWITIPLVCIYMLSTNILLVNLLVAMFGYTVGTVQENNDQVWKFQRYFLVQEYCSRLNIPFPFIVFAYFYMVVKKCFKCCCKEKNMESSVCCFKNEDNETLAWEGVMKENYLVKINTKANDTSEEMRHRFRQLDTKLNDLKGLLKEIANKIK

SMILES | IC50 [nM]
Cc1ccccc1-c1ccc(C(=O)CN2C(=O)NC3(CCC(F)(F)CC3)C2=O)nn1 [Example 12-7] | < 500
Cc1ccncc1-c1c(F)cc(C(=O)CN2C(=O)NC3(CCC(F)(F)CC3)C2=O)cc1F [Example 13-30] | < 100
N#Cc1ccccc1-c1c(F)cc(C(=O)CN2C(=O)NC3(CCC(F)(F)CC3)C2=O)cc1F [Example 13-31] | < 100
O=C(CN1C(=O)NC2(CCC(F)(F)CC2)C1=O)c1cc(F)c(-c2ccccc2CO)c(F)c1 [Example 13-32] | < 100
N#Cc1cccc(-c2c(F)cc(C(=O)CN3C(=O)NC4(CCC(F)(F)CC4)C3=O)cc2F)c1 [Example 13-33] | < 500
COc1ccncc1-c1ccc(C(=O)CN2C(=O)NC3(CCC(F)(F)CC3)C2=O)cc1 [Example 13-39] | < 100
O=C(CN1C(=O)NC2(CCC(F)(F)CC2)C1=O)c1ccc(-c2cccc3[nH]ncc23)cc1 [Example 13-40] | < 100
O=C(CN1C(=O)NC2(CCC(F)(F)CC2)C1=O)c1ccc(-c2cccc3cnccc23)cc1 [Example 13-41] | < 100
O=C(CN1C(=O)NC2(CCC(F)(F)CC2)C1=O)c1ccc(-c2cccc3[nH]ccc23)cc1 [Example 13-42] | < 100
O=C(CN1C(=O)NC2(CCC(F)(F)CC2)C1=O)c1ccc(-c2ccnc3ccccc23)cc1 [Example 13-43] | < 100
O=C1Cc2c(cccc2-c2ccc(C(=O)CN3C(=O)NC4(CCC(F)(F)CC4)C3=O)cc2)N1 [Example 13-44] | < 100
COc1ncccc1-c1ccc(C(=O)CN2C(=O)NC3(CCC(F)(F)CC3)C2=O)cc1 [Example 13-45] | < 100
O=C(CN1C(=O)NC2(CCC(F)(F)CC2)C1=O)c1ccc(-c2cccc3cccnc23)cc1 [Example 13-46] | < 100
O=C(CN1C(=O)NC2(CCC(F)(F)CC2)C1=O)c1ccc(-c2ccc3ccccc3n2)cc1 [Example 13-47] | < 100
O=C(CN1C(=O)NC2(CCC(F)(F)CC2)C1=O)c1ccc(-c2cccnc2)cc1 [Example 13-48] | < 100
O=C(CN1C(=O)NC2(CCC(F)(F)CC2)C1=O)c1ccc(-c2ccccn2)cc1 [Example 13-49] | < 100
O=C(CN1C(=O)NC2(CCC(F)(F)CC2)C1=O)c1ccc(-c2ccnc3c2OCCO3)cc1 [Example 13-50] | < 500
Cc1ccncc1-c1ccc(C(=O)CN2CC3(CCCCC3)OC2=O)cc1 [Example 13-51] | < 100
Cc1ccncc1-c1ccc(C(=O)CN2CC3(CCC(F)(F)CC3)OC2=O)cc1 [Example 13-53] | < 100
O=C(CN1CC2(CCC(F)(F)CC2)OC1=O)c1ccc(-c2ccccc2CO)cc1 [Example 13-55] | < 100

SMILES | IC50 [nM]
Cc1ncccc1-c1ccc(C(=O)CN2CC3(CCC(F)(F)CC3)OC2=O)cc1 [Example 13-56] | < 500
O=C(CN1CC2(CCC(F)(F)CC2)OC1=O)c1ccc(-c2cccc3cccnc23)cc1 [Example 13-57] | < 500
N#Cc1cccc(-c2ccc(C(=O)CN3C(=O)NC4(CCC(F)(F)CC4)C3=O)cc2Cl)c1 [Example 13-68] | < 500
O=C(CN1C(=O)NC2(CCC(F)(F)CC2)C1=O)c1cc2cc(-c3cccnc3)ccc2o1 [Example 13-69] | < 500
Cc1ncccc1-c1ccc(C(=O)CN2C(=O)OC3(CCC(F)(F)CC3)C2=O)cc1 [Example 13-72] | < 100
Cc1cc(C(=O)CN2C(=O)NC3(CCCCC3)C2=O)sc1-c1cccnc1 [Example 14-1] | < 100
Cc1cc(C(=O)CN2C(=O)NC3(CCCCC3)C2=O)sc1-c1ccccc1CO [Example 14-2] | < 100
Cc1ccncc1-c1sc(C(=O)CN2C(=O)NC3(CCCCC3)C2=O)cc1C [Example 14-3] | < 100
Cc1cc(C(=O)CN2C(=O)NC3(CCC(F)(F)CC3)C2=O)sc1-c1ccccc1CO [Example 14-4] | < 100
Cc1cc(C(=O)CN2C(=O)NC3(CCC(F)(F)CC3)C2=O)sc1-c1cnccc1CO [Example 14-6] | < 100
Cc1cc(C(=O)CN2C(=O)NC3(CCC(F)(F)CC3)C2=O)sc1-c1cccnc1 [Example 14-7] | < 100
Cc1cc(C(=O)CN2C(=O)NC3(CCC(F)(F)CC3)C2=O)sc1-c1ccccc1C#N [Example 14-8] | < 100
Cc1cc(C(=O)CN2C(=O)NC3(CCC(F)(F)CC3)C2=O)sc1-c1cccnc1C [Example 14-9] | < 100
Cc1cc(C(=O)CN2C(=O)NC3(CCC(F)(F)CC3)C2=O)sc1-c1cccc(C#N)c1 [Example 14-10] | < 100
Cc1ccccc1-c1sc(C(=O)CN2C(=O)NC3(CCC(F)(F)CC3)C2=O)cc1C [Example 14-11] | < 100
COc1ccccc1-c1sc(C(=O)CN2C(=O)NC3(CCC(F)(F)CC3)C2=O)cc1C [Example 14-12] | < 100
Cc1cc(C(=O)CN2C(=O)NC3(CCC(F)(F)CC3)C2=O)sc1-c1cncc(C#N)c1 [Example 14-13] | < 100
Cc1cc(C(=O)CN2C(=O)NC3(CCC(F)(F)CC3)C2=O)sc1-c1ccccc1Cl [Example 14-14] | < 100
Cc1cc(C(=O)CN2C(=O)NC3(CCC(F)(F)CC3)C2=O)sc1-c1cnccc1C(F)(F)F [Example 14-15] | < 100

More lines, now with the values ahead:

IC50 [nM] | SMILES
< 100 | O=C(CN1C(=O)NC2(CCC(F)(F)CC2)C1=O)c1cnc(-c2ccccc2CO)cn1 [Example 12-3]
< 100 | COc1ncccc1-c1cnc(C(=O)CN2C(=O)NC3(CCC(F)(F)CC3)C2=O)cn1 [Example 12-4]
< 100 | COc1ccncc1-c1cnc(C(=O)CN2C(=O)NC3(CCC(F)(F)CC3)C2=O)cn1 [Example 12-5]
< 100 | O=C(CN1C(=O)NC2(CCC(F)(F)CC2)C1=O)c1cnc(-c2cccc3cccnc23)cn1 [Example 12-6]
< 100 | O=C(CN1C(=O)NC2(CCCCC2)C1=O)c1ccc(-c2ccccc2CO)cc1 [Example 13-1]
< 100 | O=C(CN1C(=O)NC2(CCCCC2)C1=O)c1ccc(-c2cccnc2)cc1 [Example 13-2]
< 100 | COc1ccccc1-c1ccc(C(=O)CN2C(=O)NC3(CCCCC3)C2=O)cc1 [Example 13-3]
< 100 | Cc1ccccc1-c1ccc(C(=O)CN2C(=O)NC3(CCCCC3)C2=O)cc1 [Example 13-4]
< 100 | Cc1cc(C(=O)CN2C(=O)NC3(CCCCC3)C2=O)ccc1-c1ccccc1 [Example 13-5]
< 100 | Cc1ccccc1-c1ccc(C(=O)CN2C(=O)NC3(CCCCC3)C2=O)cc1C [Example 13-6]
< 100 | Cc1cc(C(=O)CN2C(=O)NC3(CCC(F)(F)CC3)C2=O)ccc1-c1cccnc1 [Example 13-7]
< 100 | Cc1cc(C(=O)CN2C(=O)NC3(CCC(F)(F)CC3)C2=O)ccc1-c1cncc(F)c1 [Example 13-8]
< 100 | Cc1cc(C(=O)CN2C(=O)NC3(CCC(F)(F)CC3)C2=O)ccc1-c1ccccc1C#N [Example 13-9]
< 100 | Cc1cc(C(=O)CN2C(=O)NC3(CCC(F)(F)CC3)C2=O)ccc1-c1cccc2c1CNC2=O [Example 13-10]
< 100 | Cc1cc(C(=O)CN2C(=O)NC3(CCC(F)(F)CC3)C2=O)ccc1-c1cccc(C#N)c1 [Example 13-11]
< 100 | Cc1cc(C(=O)CN2C(=O)NC3(CCC(F)(F)CC3)C2=O)ccc1-c1cccc(C(N)=O)c1 [Example 13-13]
< 100 | Cc1cc(C(=O)CN2C(=O)NC3(CCC(F)(F)CC3)C2=O)ccc1-c1ccccc1 [Example 13-14]
< 100 | Cc1cc(C(=O)CN2C(=O)NC3(CCC(F)(F)CC3)C2=O)ccc1-c1cccc2ccncc12 [Example 13-15]
< 100 | Cc1cc(C(=O)CN2C(=O)NC3(CCC(F)(F)CC3)C2=O)ccc1-c1cc(F)cc(F)c1 [Example 13-16]

IC50 [nM] | SMILES
< 100 | Cc1cc(C(=O)CN2C(=O)NC3(CCC(F)(F)CC3)C2=O)ccc1-c1cccc(F)c1 [Example 13-17]
< 100 | O=C(CN1C(=O)NC2(CCCCC2)C1=O)c1ccc(-c2cccnc2)cc1F [Example 13-18]
< 100 | N#Cc1cccc(-c2ccc(C(=O)CN3C(=O)NC4(CCCCC4)C3=O)c(F)c2)c1 [Example 13-19]
< 100 | O=C(CN1C(=O)NC2(CCCCC2)C1=O)c1ccc(-c2ccccc2)cc1F [Example 13-20]
< 100 | O=C(CN1C(=O)NC2(CCC(F)(F)CC2)C1=O)c1ccc(-c2cccc3cccnc23)c(F)c1 [Example 13-21]
< 100 | O=C(CN1C(=O)NC2(CCC(F)(F)CC2)C1=O)c1ccc(-c2cccc3cnccc23)c(F)c1 [Example 13-22]
< 100 | Cc1ccncc1-c1ccc(C(=O)CN2C(=O)NC3(CCC(F)(F)CC3)C2=O)cc1Cl [Example 13-23]
< 100 | O=C(CN1C(=O)NC2(CCC(F)(F)CC2)C1=O)c1ccc(-c2cccnc2)c(Cl)c1 [Example 13-24]
< 100 | N#Cc1ccccc1-c1ccc(C(=O)CN2C(=O)NC3(CCC(F)(F)CC3)C2=O)cc1Cl [Example 13-25]
< 100 | O=C(CN1C(=O)NC2(CCC(F)(F)CC2)C1=O)c1ccc(-c2cncc(F)c2)c(Cl)c1 [Example 13-26]
< 100 | O=C(CN1C(=O)NC2(CCC(F)(F)CC2)C1=O)c1ccc(-c2ccccc2CO)c(Cl)c1 [Example 13-27]
< 100 | NC(=O)c1cccc(-c2ccc(C(=O)CN3C(=O)NC4(CCC(F)(F)CC4)C3=O)cc2Cl)c1 [Example 13-28]
< 100 | O=C(CN1C(=O)NC2(CCC(F)(F)CC2)C1=O)c1ccc(-c2cccc3ccncc23)c(Cl)c1 [Example 13-29]
< 10 | O=C(CN1C(=O)NC2(CCC(F)(F)CC2)C1=O)c1ccc(-c2ccccc2CO)cc1 [Example 13-34]
< 10 | Cc1ccncc1-c1ccc(C(=O)CN2C(=O)NC3(CCC(F)(F)CC3)C2=O)cc1 [Example 13-35]
< 10 | O=C(CN1C(=O)NC2(CCC(F)(F)CC2)C1=O)c1ccc(-c2cccc3ccncc23)cc1 [Example 13-36]
< 10 | O=C(CN1C(=O)NC2(CCC(F)(F)CC2)C1=O)c1ccc(-c2cncc3ccccc23)cc1 [Example 13-37]
< 10 | Cc1ccncc1-c1sc(C(=O)CN2C(=O)NC3(CCC(F)(F)CC3)C2=O)cc1C [Example 14-5]
